Each structure is given as a SMILES string. “Also recorded” adds a separate entry of the source. Like-named read-outs stand apart in the source and are kept apart here.

Consider 4 compounds from US11357748B2, “Methods for treating mendelian disorders of the epigenetic machinery” (THE JOHNS HOPKINS UNIVERSITY, priority 2014, dated 2022).

The subject of test [1] is mouse models of Rubinstein-Taybi syndrome. The conditions noted are these: cited from earlier work.
For a further test, the system named is HDAC. The conditions noted are these: Phiel et al. (2001); cited from earlier work.
The test system of test [2] is H3K4 trimethylation activity in Kmt2d+/βGeo MEFs. The test is described as follows: H3K4me3 indicator in murine embryonic fibroblasts (MEFs) from Kmt2d+/βGeo and Kmt2d+/+ mice. It is filed as cell-based, mouse. The conditions noted are these: Kmt2d+/βGeo MEFs; FIG. 18H, 22A, 23. The text has this: An H3K4 trimethylation reporter was also created (FIG. 5B). This reporter is based on the H3 tail on one end and the TBP associated factor III (TAFIII) […] on the other end; the TAFIII […] only identifies and binds to trimethylated K4 on H3. When the H3K4 site gets trimethylated, the TAFIII […] can bind to the modified H3 tail and bring the two parts of the separated GFP in close proximity. The activity of the epigenetic modification system can be quantified through fluorescence.
Epigenetic reporter alleles were synthesized (OriGene, Rockville, Md.) using published sequences for component elements (Baird et al. (1999) Proc. Natl. Acad. Sci. 96:11241-6; Souslova et al. (2007) BMC Biotechnol. 7:37). Single nucleotide mutations were created using the QuickChange Lightening kit (Agilent Technologies Inc, Santa Clara, Calif.). For H4ac indicator, K5R, K8R, K12R, K16R and K20R (MUT indicator) were introduced. For H3K4me3 indicator, K4Q and D890A/W891A and M882A (three separate constructs) were introduced. […] FACS data were analyzed using FlowJo (Tree Star Inc, Ashland, Oreg.). […]
Epigenetic reporter systems were created that monitor either H4 acetylation or H3K4 trimethylation machinery activity in an effort to determine whether there is an ongoing activity deficiency in cells from Kmt2d^+/βGeo mice (FIG. 18A). Both reporter alleles encode halves of green fluorescent protein separated by a flexible linker region (Baird et al. (1999) Proc. Natl. Acad. Sci. 96: 11241-6) with a histone tail and a histone reader at the N- and C-termini, respectively. When the histone tail corresponding to either H4 or H3 is modified by acetylation or methylation, respectively, GFP structure and function are reconstituted, as detected by a fluorescent readout (FIG. 18B). The acetyl reporter protein quantifies the activity of the acetylation machinery (acetylation of H4 specifically at sites K5, K8, K12, and K16) and comprises an H4 tail (residues 1-30) on one end and a TATA binding protein (TBP)-associated factor II (TAFII) bromodomain on the other end (FIG. 18A). […]

The test system of test [3] is H4 acetylation machinery (H4ac indicator). The test can be described thus: H4 acetylation (H4ac) indicator reporter allele, GFP fluorescence by FACS in stably transfected T293/HEK293 cells. The conditions noted are these: FIG. 18C, 18D, 19A, 19B, 20. The class given is cell-based. From the text: The acetyl reporter protein quantifies the activity of the acetylation machinery (acetylation of H4 specifically at the 5th, 8th, 12th and 16th Lysine's) and comprises an H4 tail on one end (the target for acetylation) and a TBP associated factor II (TAFII) bromodomain on the other end of the reporter protein (FIG. 5A). The TAFII bromodomain only recognizes and binds to the acetylated H4 tail, resulting in reconstitution of GFP structure and function (i.e. fluorescence). Therefore, the reporter protein has no fluorescence unless it is acetylated by the acetylation system of the nucleus of the cell.
Epigenetic reporter alleles were synthesized (OriGene, Rockville, Md.) using published sequences for component elements (Baird et al. (1999) Proc. Natl. Acad. Sci. 96:11241-6; Souslova et al. (2007) BMC Biotechnol. 7:37). […] FACS data were analyzed using FlowJo (Tree Star Inc, Ashland, Oreg.). […]
Epigenetic reporter systems were created that monitor either H4 acetylation or H3K4 trimethylation machinery activity in an effort to determine whether there is an ongoing activity deficiency in cells from Kmt2d^+/βGeo mice (FIG. 18A). Both reporter alleles encode halves of green fluorescent protein separated by a flexible linker region (Baird et al. (1999) Proc. Natl. Acad. Sci. 96: 11241-6) with a histone tail and a histone reader at the N- and C-termini, respectively. […]

As to `CC(C=CC(=O)NO)=CC(C)C(=O)c1ccc(N(C)C)cc1` (centres unmarked) [trichostatin A, 7-[4-(dimethylamino)phenyl]-N-hydroxy-4,6-dimethyl-7-oxohepta-2,4-dienamide], the “neurological phenotypes in Rubinstein-Taybi mouse models” value in test [1] (intraperitoneal administration) is “respond”.
As to `CCCC(CCC)C(=O)O` [valproic acid, 2-Propylpentanoic acid], in the test with HDAC, the HDAC inhibitor activity entry is given as “potent HDACi”.
Consider `Nc1ccccc1NC(=O)c1ccc(CNC(=O)OCc2cccnc2)cc1` [MS275, Pyridin-3-ylmethyl N-[[4-[(2-aminophenyl)carbamoyl]phenyl]methyl]carbamate], for which the “H3K4 trimethylation activity in Kmt2d+/βGeo cells upon treatment” value in test [2] is recorded as “enhanced; also recorded: improved”.
As to `O=C(CCCCCCC(=O)Nc1ccccc1)NO` [SAHA, N′-hydroxy-N-phenyl-octanediamide], in test [3], the “H4ac indicator fluorescence response to increasing amounts of drug” value is “linear fluorescence response; also recorded: increasing fluorescence; also recorded: increases acetylation of the indicator; also recorded: increased signal”. Moreover, the “neurological phenotypes in Rubinstein-Taybi mouse models” value in test [1] (intracerebroventricular administration) is on record as “respond”.
